# Laboratory results: ChEMBL document CHEMBL3137386, “DNDi T. cruzi fenarimol series dataset from which preclinical candidate EPL-BS1246 was identified (see also related datasets CHEMBL2448688 and CHEMBL3137440)”
# Where “and” joins values, the source holds several entries; their conditions need not be identical. Equal entries are not always repeated.
# Tested on: not listed separately
# Assay: DNDI: Lipophilicity (gLogD) at pH 3
# Assay type: physicochemical
# Conditions: buffer
row,Structure (SMILES),chromatographic logD
1,N#Cc1ccc(C(C(=O)N2CCN(c3ccc(C(F)(F)F)cc3)CC2)c2cccnc2)cc1 (stereo not drawn),3.5
2,O=C(C(c1ccc(Cl)cc1)c1cncnc1)N1CCN(c2ccc(C(F)(F)F)cc2)CC1 (stereo not drawn),4.2
3,CS(=O)(=O)c1ccc(N2CCN(C(=O)C(c3ccc(C#N)cc3)c3cccnc3)CC2)cc1 (stereo not drawn),1.8
4,O=C(C(c1ccc(Cl)cc1)c1cccnc1)N1CCN(c2ccc(C(F)(F)F)cn2)CC1 (stereo not drawn),3.8
5,N#Cc1ccc(C(C(=O)N2CCN(c3ccc(C(F)(F)F)nc3)CC2)c2cccnc2)cc1 (stereo not drawn),2.5

# Tested on: not listed separately
# Assay: DNDI: Metabolism
# Assay type: ADME, Microsome
# Conditions: human, microsomes
Structure (SMILES),Clint,EH,half-life,microsomal CLint,t (1 / 2)
N#Cc1ccc(C(C(=O)N2CCN(c3ccc(C(F)(F)F)cc3)CC2)c2cccnc2)cc1 (stereo not drawn),42 µL/min/mg and 38 µL/min/mg,0.68 and 0.7,50 min,35 µL/min/mg,41 min and 45 min
O=C(C(c1ccc(Cl)cc1)c1cncnc1)N1CCN(c2ccc(C(F)(F)F)cc2)CC1 (stereo not drawn),–,–,30 min,59 µL/min/mg,–
CS(=O)(=O)c1ccc(N2CCN(C(=O)C(c3ccc(C#N)cc3)c3cccnc3)CC2)cc1 (stereo not drawn),15 µL/min/mg and 10 µL/min/mg and < 7 µL/min/mg,0.36 and < 0.28,–,–,113 min and 169 min and > 250 min
O=C(C(c1ccc(Cl)cc1)c1cccnc1)N1CCN(c2ccc(C(F)(F)F)cn2)CC1 (stereo not drawn),28 µL/min/mg and 30 µL/min/mg,0.61 and 0.63,41 min,42 µL/min/mg,63 min and 57 min
N#Cc1ccc(C(C(=O)N2CCN(c3ccc(C(F)(F)F)nc3)CC2)c2cccnc2)cc1 (stereo not drawn),22 µL/min/mg and 21 µL/min/mg,0.56 and 0.54,144 min,12 µL/min/mg,77 min and 81 min

# Same assay, conditions: human, microsomes; read-out: EH
row,Structure (SMILES),hepatic extraction ratio
1,N#Cc1ccc(C(C(=O)N2CCN(c3ccc(C(F)(F)F)cc3)CC2)c2cccnc2)cc1 (stereo not drawn),0.66
2,O=C(C(c1ccc(Cl)cc1)c1cncnc1)N1CCN(c2ccc(C(F)(F)F)cc2)CC1 (stereo not drawn),0.77
3,CS(=O)(=O)c1ccc(N2CCN(C(=O)C(c3ccc(C#N)cc3)c3cccnc3)CC2)cc1 (stereo not drawn),0.46
4,O=C(C(c1ccc(Cl)cc1)c1cccnc1)N1CCN(c2ccc(C(F)(F)F)cn2)CC1 (stereo not drawn),0.7
5,N#Cc1ccc(C(C(=O)N2CCN(c3ccc(C(F)(F)F)nc3)CC2)c2cccnc2)cc1 (stereo not drawn),0.4

# Tested on: not listed separately
# Assay: DNDI: Solubility in phosphate buffer at pH 6.5 determined by nephelometry
# Assay type: physicochemical
# Conditions: not given
row,Structure (SMILES),solubility kinetic
1,O=C(C(c1ccc(Cl)cc1)c1cncnc1)N1CCN(c2ccc(C(F)(F)F)cc2)CC1 (stereo not drawn),3.1 µg/mL
2,N#Cc1ccc(C(C(=O)N2CCN(c3ccc(C(F)(F)F)nc3)CC2)c2cccnc2)cc1 (stereo not drawn),12.5 µg/mL

# Molecular target: T1, Cytochrome P450 3A4 (Homo sapiens, UniProt P08684)
# Assay: (§1) DNDI: CYP Inhibition
# Assay type: ADME
# Conditions: not given
# T1 sequence (P08684 whole entry): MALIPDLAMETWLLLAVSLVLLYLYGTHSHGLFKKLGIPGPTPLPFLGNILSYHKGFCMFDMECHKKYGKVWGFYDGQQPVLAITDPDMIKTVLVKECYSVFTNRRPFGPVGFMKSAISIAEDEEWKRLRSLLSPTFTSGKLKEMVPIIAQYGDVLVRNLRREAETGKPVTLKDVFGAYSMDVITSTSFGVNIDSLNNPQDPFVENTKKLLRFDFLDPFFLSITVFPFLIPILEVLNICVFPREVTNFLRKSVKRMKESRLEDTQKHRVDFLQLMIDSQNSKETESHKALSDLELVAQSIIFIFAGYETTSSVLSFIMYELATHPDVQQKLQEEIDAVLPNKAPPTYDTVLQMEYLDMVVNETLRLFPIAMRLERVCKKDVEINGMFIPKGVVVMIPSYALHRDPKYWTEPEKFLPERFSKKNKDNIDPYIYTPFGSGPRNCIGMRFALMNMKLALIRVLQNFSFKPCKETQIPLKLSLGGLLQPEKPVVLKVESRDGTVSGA
row,Structure (SMILES),IC50
1,N#Cc1ccc(C(C(=O)N2CCN(c3ccc(C(F)(F)F)cc3)CC2)c2cccnc2)cc1 (stereo not drawn),> 20000 nM
2,O=C(C(c1ccc(Cl)cc1)c1cncnc1)N1CCN(c2ccc(C(F)(F)F)cc2)CC1 (stereo not drawn),20000 nM
3,CS(=O)(=O)c1ccc(N2CCN(C(=O)C(c3ccc(C#N)cc3)c3cccnc3)CC2)cc1 (stereo not drawn),> 20000 nM
4,O=C(C(c1ccc(Cl)cc1)c1cccnc1)N1CCN(c2ccc(C(F)(F)F)cn2)CC1 (stereo not drawn),> 20000 nM
5,N#Cc1ccc(C(C(=O)N2CCN(c3ccc(C(F)(F)F)nc3)CC2)c2cccnc2)cc1 (stereo not drawn),> 20000 nM

# Tested on: Trypanosoma cruzi
# Assay: (§2) DNDI: Chagas in vitro
# Assay type: functional, Tulahuen C4 (LacZ)
# Conditions: not given
row,Structure (SMILES),IC90
1,N#Cc1ccc(C(C(=O)N2CCN(c3ccc(C(F)(F)F)cc3)CC2)c2cccnc2)cc1 (stereo not drawn),27 nM and 71.5 nM and > 100 nM
2,CS(=O)(=O)c1ccc(N2CCN(C(=O)C(c3ccc(C#N)cc3)c3cccnc3)CC2)cc1 (stereo not drawn),> 100 nM and 29.1 nM
3,O=C(C(c1ccc(Cl)cc1)c1cccnc1)N1CCN(c2ccc(C(F)(F)F)cn2)CC1 (stereo not drawn),> 100 nM and 400 nM
4,N#Cc1ccc(C(C(=O)N2CCN(c3ccc(C(F)(F)F)nc3)CC2)c2cccnc2)cc1 (stereo not drawn),81.5 nM

# Same assay, conditions: Trypanosoma cruzi, Tulahuen C4 (LacZ)
row,Structure (SMILES),IC90
1,O=C(C(c1ccc(Cl)cc1)c1cncnc1)N1CCN(c2ccc(C(F)(F)F)cc2)CC1 (stereo not drawn),> 100 nM
2,N#Cc1ccc(C(C(=O)N2CCN(c3ccc(C(F)(F)F)nc3)CC2)c2cccnc2)cc1 (stereo not drawn),> 100 nM

# Tested on: not listed separately
# Assay: DNDI: Lipophilicity (gLogD) at pH 7.4
# Assay type: physicochemical
# Conditions: buffer
row,Structure (SMILES),chromatographic logD
1,O=C(C(c1ccc(Cl)cc1)c1cncnc1)N1CCN(c2ccc(C(F)(F)F)cc2)CC1 (stereo not drawn),4.2
2,CS(=O)(=O)c1ccc(N2CCN(C(=O)C(c3ccc(C#N)cc3)c3cccnc3)CC2)cc1 (stereo not drawn),2.3
3,N#Cc1ccc(C(C(=O)N2CCN(c3ccc(C(F)(F)F)nc3)CC2)c2cccnc2)cc1 (stereo not drawn),3

# Tested on: L6
# Assay: (§3) DNDI: Cytotoxicity against L-6 rat myoblasts from skeletal muscle
# Assay type: toxicity, cell-based, Muscle tissue
# Conditions: l6
row,Structure (SMILES),IC50
1,N#Cc1ccc(C(C(=O)N2CCN(c3ccc(C(F)(F)F)cc3)CC2)c2cccnc2)cc1 (stereo not drawn),54700 nM
2,O=C(C(c1ccc(Cl)cc1)c1cccnc1)N1CCN(c2ccc(C(F)(F)F)cn2)CC1 (stereo not drawn),59300 nM

# Tested on: not listed separately
# Assay: as §3
# Assay type: toxicity, cell-based, Muscle tissue, L6
# Conditions: rat, L6 rat skeletal muscle myoblasts
row,Structure (SMILES),IC50
1,N#Cc1ccc(C(C(=O)N2CCN(c3ccc(C(F)(F)F)cc3)CC2)c2cccnc2)cc1 (stereo not drawn),73800 nM
2,O=C(C(c1ccc(Cl)cc1)c1cncnc1)N1CCN(c2ccc(C(F)(F)F)cc2)CC1 (stereo not drawn),51300 nM
3,CS(=O)(=O)c1ccc(N2CCN(C(=O)C(c3ccc(C#N)cc3)c3cccnc3)CC2)cc1 (stereo not drawn),> 100000 nM
4,O=C(C(c1ccc(Cl)cc1)c1cccnc1)N1CCN(c2ccc(C(F)(F)F)cn2)CC1 (stereo not drawn),57000 nM
5,N#Cc1ccc(C(C(=O)N2CCN(c3ccc(C(F)(F)F)nc3)CC2)c2cccnc2)cc1 (stereo not drawn),> 100000 nM

# Tested on: Trypanosoma cruzi
# Assay: as §2
# Assay type: functional, organism-based, Tulahuen C4 (LacZ)
# Conditions: not given
row,Structure (SMILES),IC50
1,N#Cc1ccc(C(C(=O)N2CCN(c3ccc(C(F)(F)F)cc3)CC2)c2cccnc2)cc1 (stereo not drawn),10 nM and 12 nM and 67.5 nM
2,N#Cc1ccc(C(C(=O)N2CCN(c3ccc(C(F)(F)F)nc3)CC2)c2cccnc2)cc1 (stereo not drawn),55 nM and > 100 nM and 20.5 nM

# Same assay, conditions: Trypanosoma cruzi, Tulahuen C4 (LacZ)
row,Structure (SMILES),IC50
1,O=C(C(c1ccc(Cl)cc1)c1cncnc1)N1CCN(c2ccc(C(F)(F)F)cc2)CC1 (stereo not drawn),118 nM

# Tested on: not listed separately
# Assay: DNDI: Solubility in 0.01M HCl at pH 2 determined by nephelometry
# Assay type: physicochemical
# Conditions: 0.01 M HCl
row,Structure (SMILES),solubility kinetic
1,N#Cc1ccc(C(C(=O)N2CCN(c3ccc(C(F)(F)F)cc3)CC2)c2cccnc2)cc1 (stereo not drawn),> 100 µg/mL
2,O=C(C(c1ccc(Cl)cc1)c1cncnc1)N1CCN(c2ccc(C(F)(F)F)cc2)CC1 (stereo not drawn),3.1 µg/mL
3,CS(=O)(=O)c1ccc(N2CCN(C(=O)C(c3ccc(C#N)cc3)c3cccnc3)CC2)cc1 (stereo not drawn),> 100 µg/mL
4,O=C(C(c1ccc(Cl)cc1)c1cccnc1)N1CCN(c2ccc(C(F)(F)F)cn2)CC1 (stereo not drawn),> 100 µg/mL
5,N#Cc1ccc(C(C(=O)N2CCN(c3ccc(C(F)(F)F)nc3)CC2)c2cccnc2)cc1 (stereo not drawn),> 100 µg/mL

# Same assay, conditions: buffer
row,Structure (SMILES),Kinetic
1,O=C(C(c1ccc(Cl)cc1)c1cccnc1)N1CCN(c2ccc(C(F)(F)F)cn2)CC1 (stereo not drawn),25 µg/mL

# Molecular target: T1, Cytochrome P450 3A4
# Assay: as §1
# Assay type: ADME
# Conditions: not given
row,Structure (SMILES),IC50
1,O=C(C(c1ccc(Cl)cc1)c1cccnc1)N1CCN(c2ccc(C(F)(F)F)cn2)CC1 (stereo not drawn),6600 nM

# Tested on: Trypanosoma brucei rhodesiense
# Assay: DNDI: HAT in vitro
# Assay type: functional, organism-based
# Conditions: ATCC 30027
row,Structure (SMILES),IC50
1,N#Cc1ccc(C(C(=O)N2CCN(c3ccc(C(F)(F)F)cc3)CC2)c2cccnc2)cc1 (stereo not drawn),> 10000 nM
2,O=C(C(c1ccc(Cl)cc1)c1cncnc1)N1CCN(c2ccc(C(F)(F)F)cc2)CC1 (stereo not drawn),> 10000 nM
3,CS(=O)(=O)c1ccc(N2CCN(C(=O)C(c3ccc(C#N)cc3)c3cccnc3)CC2)cc1 (stereo not drawn),> 10000 nM
4,O=C(C(c1ccc(Cl)cc1)c1cccnc1)N1CCN(c2ccc(C(F)(F)F)cn2)CC1 (stereo not drawn),> 10000 nM
5,N#Cc1ccc(C(C(=O)N2CCN(c3ccc(C(F)(F)F)nc3)CC2)c2cccnc2)cc1 (stereo not drawn),> 10000 nM
